Assay results as given in PMC11855827, “High-Throughput Screening of Five Compound Libraries for Anthelmintic Activity and Toxicity Leads to the Discovery of Two Flavonoid Compounds” (International Journal of Molecular Sciences, 2025).
Like-named read-outs stand apart in the source and are kept apart here.

Tested on: C. elegans
Test: microbe, parasite or virus in culture
Settings: Caenorhabditis elegans
[1] = 0 h, read-out: Percentage of motility inhibition 0 h, Table S2, C. elegans SS assay, 110 μM, 0 h, averages of 4 data points
[2] = 24 h, read-out: Percentage of motility inhibition 24 h, Table S2, C. elegans SS assay, 110 μM, 24 h, averages of 4 data points
[3] = 0 h, read-out: Percentage of motility inhibition 0 h
[4] = 24 h, read-out: Percentage of motility inhibition 24 h

SMILES | inhibition at 110 µM [1] [%] | inhibition at 110 µM [2] [%] | inhibition at 110 µM [3] [%] | inhibition at 110 µM [4] [%]
C/C(=C\C(=O)CC(C)C(=O)O)[C@H]1CC(=O)[C@@]2(C)C3=C(C(=O)C[C@]12C)[C@@]1(C)CC[C@H](O)C(C)(C)[C@@H]1C[C@@H]3O (stereo partly drawn) [Ganoderenic acid B] | 0 | 42 |  | 
C[C@H](CC(=O)C[C@@H](C)[C@H]1C[C@H](O)[C@@]2(C)C3=C(C(=O)C[C@]12C)[C@@]1(C)CCC(=O)C(C)(C)[C@@H]1C[C@@H]3O)C(=O)O [Ganoderic acid A] | 15 | 6 |  | 
CC(CC(=O)C[C@@H](C)[C@H]1CC(=O)[C@@]2(C)C3=C(C(=O)C[C@]12C)[C@@]1(C)CC[C@H](O)C(C)(C)[C@@H]1C[C@@H]3O)C(=O)O (stereo partly drawn) [Ganoderic acid B] | 0 | 20 |  | 
C/C(=C\CC[C@@H](C)[C@H]1CC[C@@]2(C)C3=C(CC[C@]12C)[C@@]1(C)CCC(=O)C(C)(C)[C@@H]1CC3=O)C(=O)O [Ganoderic acid DM] |  |  | 6 | 1
CC(CC(=O)C[C@@H](C)[C@H]1CC(=O)[C@@]2(C)C3=C(C(=O)C[C@]12C)[C@@]1(C)CCC(=O)C(C)(C)[C@@H]1C[C@@H]3O)C(=O)O (stereo partly drawn) [Ganoderic acid D] | 0 | 21 |  | 
CC(=O)O[C@@H]1C(=O)C2=C(C(=O)C[C@H]3C(C)(C)C(=O)CC[C@]23C)[C@]2(C)C(=O)C[C@H]([C@H](C)CC(=O)CC(C)C(=O)O)[C@@]12C (stereo partly drawn) [Ganoderic acid F] | 14 | 2 |  | 
CC(CC(=O)C[C@@H](C)[C@H]1CC(=O)[C@@]2(C)C3=C(C(=O)[C@@H](O)[C@]12C)[C@@]1(C)CC[C@H](O)C(C)(C)[C@@H]1C[C@@H]3O)C(=O)O (stereo partly drawn) [Ganoderic acid G] | 0 | 3 |  | 
C/C(=C\CC[C@@H](C)[C@H]1CC[C@@]2(C)C3=CC[C@H]4C(C)(C)[C@@H](O)CC[C@]4(C)C3=CC[C@]12C)CO [Ganoderol B] | 5 | 35 |  | 
C=C(C)[C@@H](CC=C(C)C)C[C@@]12C[C@@H](CC=C(C)C)C(C)(C)[C@@](CC=C(C)C)(C(=O)C(C(=O)c3ccc(O)c(O)c3)=C1O)C2=O [Garcinol] | 8 | 3 |  | 
COc1ccc(-c2cc(=O)c3c(O)c(OC)c(OC)c(OC)c3o2)cc1 [Gardenin B] | 6 | 0 |  | 
COC(=O)C1=CO[C@@H](O[C@@H]2O[C@H](CO)[C@@H](O)[C@H](O)[C@H]2O)[C@H]2[C@@H]1C=C[C@@]2(O)CO [Gardenoside] |  |  | 0 | 8
OCc1ccc(O[C@@H]2O[C@H](CO)[C@@H](O)[C@H](O)[C@H]2O)cc1 [Gastrodin] |  |  | 4 | 8
COc1c(N2CCNC(C)C2)c(F)cc2c(=O)c(C(=O)O)cn(C3CC3)c12 (stereo not drawn) [Gatifloxaci n] | 0 | 0 |  | 
C=C[C@]12CN(C)[C@@H]3[C@H]4CO[C@H](C[C@H]41)[C@]1(C(=O)Nc4ccccc41)[C@@H]32 [Gelsemi ne] | 0 | 0 |  | 
COC(=O)C1=CO[C@@H](O)[C@@H]2C(CO)=CC[C@H]12 [Genipin] | 0 | 0 |  | 
COC(=O)C1=CO[C@@H](O[C@@H]2O[C@H](CO)[C@@H](O)[C@H](O)[C@H]2O)[C@@H]2C(CO)=CC[C@H]12 [Geniposide] | 0 | 0 |  | 
O=C(O)C1=CO[C@@H](O[C@@H]2O[C@H](CO)[C@@H](O)[C@H](O)[C@H]2O)[C@@H]2C(CO)=CC[C@H]12 [Geniposidic acid] | 0 | 3 |  | 
O=c1c(-c2ccc(O)cc2)coc2cc(O)cc(O)c12 [Genistein] | 5 | 2 |  | 

SMILES | inhibition at 110 µM [1] [%] | inhibition at 110 µM [2] [%] | inhibition at 110 µM [3] [%] | inhibition at 110 µM [4] [%]
O=c1c(-c2ccc(O)cc2)coc2cc(O[C@@H]3O[C@H](CO)[C@@H](O)[C@H](O)[C@H]3O)cc(O)c12 [Genistin] | 29 | 19 |  | 
COc1cc(O)c2c(=O)cc(-c3ccc(O)cc3)oc2c1 [Genkwanin] | 34 | 4 |  | 
C=C[C@@H]1C2=CCOC(=O)C2=CO[C@H]1O[C@@H]1O[C@H](CO)[C@@H](O)[C@H](O)[C@H]1O [Gentiopicroside] | 0 | 19 |  | 
CC(C)=CCC/C(C)=C/CO [Geraniol] | 0 | 3 |  | 
C=C1C[C@]23C[C@@]1(O)CC[C@H]2[C@@]12C=C[C@H](O)[C@@](C)(C(=O)O1)[C@H]2[C@@H]3C(=O)O [Gibberellic acid] | 17 | 22 |  | 
COc1cc(O)c2c(=O)cc(-c3ccc(OC)c(-c4c(O)cc(O)c5c(=O)cc(-c6ccc(O)cc6)oc45)c3)oc2c1 [Ginkgetin] | 13 | 16 |  | 
C[C@@H]1C(=O)O[C@H]2C[C@@]34[C@H]5C[C@@H](C(C)(C)C)[C@]36[C@@H](OC(=O)[C@@H]6O)O[C@@]4(C(=O)O5)[C@]21O [Ginkgolide A] | 2 | 8 |  | 
CC(C)=CCC[C@](C)(O[C@@H]1O[C@H](CO)[C@@H](O)[C@H](O)[C@H]1O)[C@H]1CC[C@]2(C)[C@@H]1[C@H](O)C[C@@H]1[C@@]3(C)CC[C@H](O)C(C)(C)[C@@H]3[C@@H](O)C[C@]12C [Ginsenoside F1] | 10 | 2 |  | 
CC(C)=CCC[C@](C)(O[C@@H]1O[C@H](CO)[C@@H](O)[C@H](O)[C@H]1O)[C@H]1CC[C@]2(C)[C@@H]1[C@H](O)C[C@@H]1[C@@]3(C)CC[C@H](O[C@@H]4O[C@H](CO)[C@@H](O)[C@H](O)[C@H]4O)C(C)(C)[C@@H]3CC[C@]12C [Ginsenoside F2] | 0 | 45 |  | 
CC(C)=CCC[C@](C)(O[C@@H]1O[C@H](CO[C@@H]2OC[C@H](O)[C@H](O)[C@H]2O)[C@@H](O)[C@H](O)[C@H]1O)[C@H]1CC[C@]2(C)[C@@H]1[C@H](O)C[C@@H]1[C@@]3(C)CC[C@H](O)C(C)(C)[C@@H]3[C@@H](O)C[C@]12C [Ginsenoside F3] | 2 | 34 |  | 
CC(C)=CCC[C@](C)(O[C@@H]1O[C@H](CO[C@H]2O[C@H](CO)[C@@H](O)[C@@H]2O)[C@@H](O)[C@H](O)[C@H]1O)[C@H]1CC[C@]2(C)[C@@H]1[C@H](O)C[C@@H]1[C@@]3(C)CC[C@H](O)C(C)(C)[C@@H]3[C@@H](O)C[C@]12C [Ginsenoside F5] | 43 | 17 |  | 
CC(C)=CCC[C@](C)(O[C@@H]1O[C@H](CO[C@@H]2O[C@H](CO)[C@@H](O)[C@H](O)[C@H]2O)[C@@H](O)[C@H](O)[C@H]1O)[C@H]1CC[C@]2(C)[C@@H]1[C@H](O)C[C@@H]1[C@@]3(C)CC[C@H](O[C@@H]4O[C@H](CO)[C@@H](O)[C@H](O)[C@H]4O[C@@H]4O[C@H](CO)[C@@H](O)[C@H](O)[C@H]4O)C(C)(C)[C@@H]3CC[C@]12C [Ginsenoside Rb1] | 4 | 0 |  | 
CC(C)=CCC[C@](C)(O[C@@H]1O[C@H](CO[C@@H]2OC[C@H](O)[C@H](O)[C@H]2O)[C@@H](O)[C@H](O)[C@H]1O)[C@H]1CC[C@]2(C)[C@@H]1[C@H](O)C[C@@H]1[C@@]3(C)CC[C@H](O[C@@H]4O[C@H](CO)[C@@H](O)[C@H](O)[C@H]4O[C@@H]4O[C@H](CO)[C@@H](O)[C@H](O)[C@H]4O)C(C)(C)[C@@H]3CC[C@]12C [Ginsenoside Rb2] | 7 | 0 |  | 
CC(C)=CCC[C@](C)(O[C@@H]1O[C@H](CO[C@@H]2OC[C@@H](O)[C@H](O)[C@H]2O)[C@@H](O)[C@H](O)[C@H]1O)[C@H]1CC[C@]2(C)[C@@H]1[C@H](O)C[C@@H]1[C@@]3(C)CC[C@H](O[C@@H]4O[C@H](CO)[C@@H](O)[C@H](O)[C@H]4O[C@@H]4O[C@H](CO)[C@@H](O)[C@H](O)[C@H]4O)C(C)(C)[C@@H]3CC[C@]12C [Ginsenoside Rb3] | 6 | 1 |  | 
CC(C)=CCC[C@](C)(O[C@@H]1O[C@H](CO[C@@H]2O[C@@H](CO)[C@H](O)[C@H]2O)[C@@H](O)[C@H](O)[C@H]1O)[C@H]1CC[C@]2(C)[C@@H]1[C@H](O)C[C@@H]1[C@@]3(C)CC[C@H](O[C@@H]4O[C@H](CO)[C@@H](O)[C@H](O)[C@H]4O[C@@H]4O[C@H](CO)[C@@H](O)[C@H](O)[C@H]4O)C(C)(C)[C@@H]3CC[C@]12C [Ginsenoside Rc] | 0 | 0 |  | 
CC(C)=CCC[C@](C)(O[C@@H]1O[C@H](CO)[C@@H](O)[C@H](O)[C@H]1O)[C@H]1CC[C@]2(C)[C@@H]1[C@H](O)C[C@@H]1[C@@]3(C)CC[C@H](O[C@@H]4O[C@H](CO)[C@@H](O)[C@H](O)[C@H]4O[C@@H]4O[C@H](CO)[C@@H](O)[C@H](O)[C@H]4O)C(C)(C)[C@@H]3CC[C@]12C [Ginsenoside Rd] | 4 | 4 |  | 
CC(C)=CCC[C@](C)(O[C@@H]1O[C@H](CO)[C@@H](O)[C@H](O)[C@H]1O)[C@H]1CC[C@]2(C)[C@@H]1[C@H](O)C[C@@H]1[C@@]3(C)CC[C@H](O)C(C)(C)[C@@H]3[C@@H](O[C@@H]3O[C@H](CO)[C@@H](O)[C@H](O)[C@H]3O[C@@H]3O[C@@H](C)[C@H](O)[C@@H](O)[C@H]3O)C[C@]12C [Ginsenoside Re] | 0 | 0 |  | 
CC(C)=CCC[C@](C)(O)[C@H]1CC[C@]2(C)[C@@H]1[C@H](O)C[C@@H]1[C@@]3(C)CC[C@H](O)C(C)(C)[C@@H]3[C@@H](O[C@@H]3O[C@H](CO)[C@@H](O)[C@H](O)[C@H]3O[C@@H]3O[C@H](CO)[C@@H](O)[C@H](O)[C@H]3O)C[C@]12C [Ginsenoside Rf] | 0 | 0 |  | 
